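Exposure lasted 48 hours, with cells grown in 96-well plates and compounds tested at five concentrations. The concentration for 50% growth inhibition is given as GI50.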 Active and inactive are the calls of the source. Cut-off read from the data, not from the text of the source: active = GI50 up to about 1.1 µM and inactive = higher.
Tests used:
Experiment in all cases: NCI tumour cell line growth inhibition, 48 h
OVCAR-8 = test system: OVCAR-8
CAKI-1 = test system: CAKI-1
OVCAR-5 = test system: OVCAR-5
SNB-75 = test system: SNB-75
EKVX = test system: EKVX
ACHN = test system: ACHN
MCF7 = test system: MCF7
DU-145 = test system: DU-145
HOP-62 = test system: HOP-62
A549 = test system: A549
OVCAR-3 = test system: OVCAR-3
RPMI-8226 = test system: RPMI-8226
HCT-116 = test system: HCT-116
SNB-19 = test system: SNB-19
UO-31 = test system: UO-31
SF-295 = test system: SF-295
MDA-N = test system: MDA-N
NCI-H522 = test system: NCI-H522
NCI/ADR-RES = test system: NCI/ADR-RES
OVCAR-4 = test system: OVCAR-4

Measured: GI50

CC1C(O)Oc2cc3c(cc2C1c1ccccc1O)OCO3 (stereo not drawn)
inactive: OVCAR-8 36.5 µM | CAKI-1 29.2 µM | OVCAR-5 45.7 µM | SNB-75 24.6 µM | EKVX 43.6 µM | ACHN 29.6 µM | MCF7 38.1 µM | DU-145 40.6 µM | HOP-62 65 µM | A549 30.1 µM | OVCAR-3 27.8 µM | RPMI-8226 16.7 µM | HCT-116 17.9 µM | SNB-19 51.6 µM | UO-31 28.8 µM | SF-295 21.2 µM | MDA-N 30.5 µM | NCI-H522 17.1 µM

CCCCC(CCCC)=NNC(=S)SC
inactive: OVCAR-8 19.2 µM | OVCAR-5 38.2 µM | SNB-75 27.5 µM | EKVX 87.3 µM | ACHN 29.6 µM | MCF7 28.6 µM | DU-145 30.3 µM | NCI/ADR-RES 25.1 µM | HOP-62 40.6 µM | A549 26.1 µM | OVCAR-4 18.9 µM | HCT-116 17.4 µM | SNB-19 24.3 µM | UO-31 24.7 µM | NCI-H522 17.1 µM

C=C1C(=O)O[C@H]2C1C[C@@H](O)[C@@]1(C)OC1CC[C@@]1(C)O[C@H]21 (stereo partly drawn)
inactive: OVCAR-8 34.7 µM | CAKI-1 16.7 µM | OVCAR-5 28.7 µM | SNB-75 74.1 µM | EKVX 15.8 µM | ACHN 13.7 µM | MCF7 14.8 µM | DU-145 36.6 µM | NCI/ADR-RES 20.7 µM | A549 > 100 µM | OVCAR-4 13.9 µM | RPMI-8226 8.95 µM | HCT-116 17.7 µM | SNB-19 > 100 µM | UO-31 17 µM | SF-295 99.1 µM | NCI-H522 5.62 µM

c1ccc2c(c1)nc1n2sc2nc3ccccc3n21
inactive: OVCAR-8 > 100 µM | CAKI-1 > 100 µM | OVCAR-5 > 100 µM | EKVX 54 µM | MCF7 35.6 µM | DU-145 > 100 µM | NCI/ADR-RES > 100 µM | A549 > 100 µM | OVCAR-4 > 100 µM | OVCAR-3 > 100 µM | RPMI-8226 > 100 µM | HCT-116 > 100 µM | UO-31 > 100 µM | SF-295 > 100 µM | NCI-H522 34.9 µM

C[C@H](c1ccccc1)N1C(=O)[C@@H](OCc2ccccc2)[C@H]1[C@H](COC(=O)COCc1ccccc1)OCc1ccccc1
inactive: OVCAR-5 > 100 µM | SNB-75 9.08 µM | EKVX > 100 µM | ACHN > 100 µM | MCF7 > 100 µM | DU-145 > 100 µM | HOP-62 > 100 µM | A549 > 100 µM | OVCAR-3 > 100 µM | RPMI-8226 27.9 µM | HCT-116 > 100 µM | SNB-19 37.1 µM | UO-31 7.69 µM | SF-295 > 100 µM | MDA-N > 100 µM | NCI-H522 86.9 µM

COc1nc(NC2OC(COC(C)=O)C(OC(C)=O)C(OC(C)=O)C2OC(C)=O)c(/N=C/C=N/c2c(NC3OC(COC(C)=O)C(OC(C)=O)C(OC(C)=O)C3OC(C)=O)nc(OC)[nH]c2=O)c(=O)[nH]1 (stereo not drawn)
inactive: OVCAR-8 > 100 µM | CAKI-1 > 100 µM | OVCAR-5 > 100 µM | SNB-75 > 100 µM | EKVX > 100 µM | ACHN > 100 µM | HOP-62 > 100 µM | A549 > 100 µM | OVCAR-4 > 100 µM | OVCAR-3 > 100 µM | RPMI-8226 > 100 µM | HCT-116 > 100 µM | SNB-19 > 100 µM | UO-31 > 100 µM | SF-295 > 100 µM | NCI-H522 > 100 µM

CO[C@@]1(c2ccccc2)O[C@H]2OCCC2[C@H]1c1ccc(Cl)cc1 (stereo partly drawn)
inactive: OVCAR-8 33.7 µM | CAKI-1 28.8 µM | OVCAR-5 29.1 µM | SNB-75 28.8 µM | EKVX 24.7 µM | ACHN 34 µM | HOP-62 40.8 µM | A549 32.7 µM | OVCAR-4 26.6 µM | OVCAR-3 16.5 µM | RPMI-8226 34 µM | HCT-116 27.6 µM | SNB-19 40.1 µM | UO-31 25.4 µM | SF-295 21.3 µM | NCI-H522 16.4 µM

CCOC(=O)C1=C(C)Nc2ccccc2S1
inactive: CAKI-1 > 100 µM | OVCAR-5 > 100 µM | SNB-75 > 100 µM | EKVX 14.3 µM | ACHN > 100 µM | HOP-62 > 100 µM | A549 > 100 µM | OVCAR-4 > 100 µM | OVCAR-3 > 100 µM | RPMI-8226 48.3 µM | HCT-116 > 100 µM | SNB-19 > 100 µM | UO-31 > 100 µM | SF-295 > 100 µM | NCI-H522 > 100 µM

Cc1c(-c2cc(-c3ccccc3)n[nH]c2=O)c2ccccc2n1C
inactive: OVCAR-8 > 100 µM | CAKI-1 > 100 µM | OVCAR-5 > 100 µM | SNB-75 > 100 µM | EKVX > 100 µM | ACHN > 100 µM | HOP-62 > 100 µM | A549 > 100 µM | OVCAR-4 > 100 µM | OVCAR-3 > 100 µM | RPMI-8226 76.2 µM | HCT-116 > 100 µM | SNB-19 > 100 µM | UO-31 > 100 µM | SF-295 > 100 µM | NCI-H522 > 100 µM

COC(=O)C1CC(=O)CCC1c1ccccc1 (stereo not drawn)
inactive: OVCAR-8 > 100 µM | CAKI-1 > 100 µM | OVCAR-5 > 100 µM | SNB-75 > 100 µM | EKVX > 100 µM | ACHN > 100 µM | HOP-62 > 100 µM | A549 > 100 µM | OVCAR-4 > 100 µM | OVCAR-3 > 100 µM | RPMI-8226 > 100 µM | HCT-116 > 100 µM | SNB-19 > 100 µM | UO-31 > 100 µM | SF-295 > 100 µM | NCI-H522 > 100 µM

CCN1c2ccccc2C(C(SC)S(=O)(=O)c2ccc(C)cc2)c2c1[nH]c(=O)n(C)c2=O (stereo not drawn)
inactive: OVCAR-8 > 100 µM | CAKI-1 > 100 µM | OVCAR-5 > 100 µM | SNB-75 23.7 µM | EKVX > 100 µM | HOP-62 > 100 µM | A549 > 100 µM | OVCAR-4 > 100 µM | OVCAR-3 > 100 µM | RPMI-8226 > 100 µM | HCT-116 > 100 µM | SNB-19 > 100 µM | UO-31 > 100 µM | SF-295 > 100 µM | NCI-H522 > 100 µM

CSc1nc(C#N)c(/N=C\N(C)C)n1C
inactive: OVCAR-8 > 100 µM | CAKI-1 > 100 µM | OVCAR-5 > 100 µM | EKVX > 100 µM | ACHN > 100 µM | DU-145 > 100 µM | NCI/ADR-RES > 100 µM | HOP-62 > 100 µM | A549 > 100 µM | OVCAR-4 > 100 µM | OVCAR-3 > 100 µM | RPMI-8226 > 100 µM | HCT-116 > 100 µM | SNB-19 > 100 µM | UO-31 > 100 µM | SF-295 > 100 µM | MDA-N > 100 µM | NCI-H522 > 100 µM

— ChEMBL document CHEMBL1201862, “PubChem BioAssay data set” (2004)
